Assay results taken from US8343924B2, “Composition for improving brain function and method for improving brain function” (Calpis Co., Ltd., priority 2009, dated 2013).

Legend:
[1] = test system: scopolamine-induced amnesia; experiment: Y-shaped maze test, prophylactic activity against scopolamine-induced amnesia; assay type: in vivo; details: male ddY mice, scopolamine 1 mg/kg s.c. 30 min before test
Text: The effect in improving brain function of the composition of the present invention, or the peptide the peptide Pro-Val-Arg-Gly-Pro-Phe-Pro-Ile-Ile-Val (SEQ ID NO: 2) or the peptide Val-Arg-Gly-Pro-Phe-Pro-Ile-Ile-Val (SEQ ID NO: 1) may be confirmed using a system based on an evaluation system for therapeutic drugs against Alzheimer's disease, the system using a Y-shaped maze test, for example. Specifically, a muscarinic receptor antagonist, such as scopolamine, may be used on a rat or a mouse so as to cause a hypofunction of the cholinergic neurons. Then, either the rat or the mouse may be administered with a drug, which induces amnesia by causing brain dysfunction, by itself, or the composition of the present invention, the peptide Pro-Val-Arg-Gly-Pro-Phe-Pro-Ile-Ile-Val (SEQ ID NO: 2) or the peptide Val-Arg-Gly-Pro-Phe-Pro-Ile-Ile-Val (SEQ ID NO: 1) together with such a drug, or the rat or the mouse may be administered, prior to the administration of such a drug, with the composition of the present invention, the peptide Pro-Val-Arg-Gly-Pro-Phe-Pro-Ile-Ile-Val (SEQ ID NO: 2) or the peptide Val-Arg-Gly-Pro-Phe-Pro-Ile-Ile-Val (SEQ ID NO: 1). Then, the mouse or the rat may be subjected to a test using a Y-shaped maze so that the prophylactic actions against amnesia of the composition of the present invention may be confirmed by using the percentage of change in spontaneous alternation behavior to different arms and the total number of entries into the maze as indicators.
Male mice (n=15 to 30) of the ddY strain (approximately 7-week old) were used, and they took food and water ad lib. Test substances used were 3 nmol/kg weight (3 μg/kg weight) and 30 nmol/kg weight (30 μg/kg weight) of Pro-Val-Arg-Gly-Pro-Phe-Pro-Ile-Ile-Val (SEO ID NO: 2). The test substances were administered to the mice once orally 60 minutes before the execution of a Y-shaped maze test for evaluation of spontaneous alternation behavior. […] The sequence of the arms each of the mice entered was recorded. The number of entries by each of the mice for each of the arms during the measurement time was counted to be the total number of entries. […] The percentage of spontaneous alternation behavior was calculated by dividing the number of spontaneous alternation behavior by a number obtained by subtracting 2 from the total number of entries, and multiplying a resultant number by 100. […] The measured values were expressed in the form of mean±standard error for each group. A significant difference between the control group and the scopolamine control group was calculated using Student's t-test. Further, a significant difference between the scopolamine control group and the PVRGPFPIIV (SEQ ID NO: 2)-administered group was calculated using Dunnett's multiple comparison test after one-way analysis of variance. […]

human T2R receptor = details: functions as a bitter substance; cited from earlier work
[2] = Example 2, 3 nmol/kg weight (3 μg/kg) once orally 60 min before test

Sequence	prophylactic activity against amnesia (percentage of spontaneous alternation behavior) ([1]; Example 1, 3 nmol/kg weight to 30 nmol/kg weight (3 μg/kg to 30 μg/kg) once orally 60 min before test)	prophylactic activity against amnesia (percentage of spontaneous alternation behavior) [1, 2]	binding to human T2R receptor (receptor for bitter substances) (human T2R receptor)
PVRGPFPIIV (Synthetic functional peptide) [Pro-Val-Arg-Gly-Pro-Phe-Pro-Ile-Ile-Val]	had a prophylactic activity against amnesia	had a prophylactic activity against amnesia	binds to a human T2R receptor
RGPFPIIV (Synthetic comparative example peptide) [Arg-Gly-Pro-Phe-Pro-Ile-Ile-Val]		did not show any activity	
VRGPFPIIV (Synthetic functional peptide) [Val-Arg-Gly-Pro-Phe-Pro-Ile-Ile-Val]		had a prophylactic activity against amnesia	
